Experimental data as given in patent publication US11760984B2, “CRISPR protein inhibitors” (THE BROAD INSTITUTE, INC., priority 2017, dated 2023).

Legend:
dCas9 = assay: dCas9-based transcriptional activation of HBG1 gene in HEK293FT cells (RT-qPCR); type: cell-based; conditions: for inhibition of HBG1 transcriptional activation: HEK293FT cells, 48 hours
Protocol: Transcription activation experiments and quantitative RT-PCR analyses. For transcription activation experiments 250,000 cells/well were plated in a 12 well plate. The cells were transiently transfected with a 1:1:1 mass ratio of the dCas9 plasmid, MS2-P65-HSF1 effector plasmid and the sgRNA plasmid targeting the HBG1 gene or an RFP control plasmid. A total of 1.6 μg plasmid DNA was transfected using Lipofectamine 2000 (Life Technologies) according to manufacturer's protocol. Immediately after transfection, the cells were treated with an appropriate dose of the small molecule inhibitors for 48 hours following which the cells were harvested and RNA was extracted using the EZNA Total RNA kit I (Omega) as per manufacturer's instructions. 1 μg total cellular RNA was used to perform reverse transcription using the High-Capacity cDNA Reverse Transcription Kit (Applied Biosystems) or the qScript cDNA Synthesis Kit (QuantaBio). qPCR reactions were performed to quantify RNA expression using the TaqMan probes (Life Technologies, HBG1/HBG2: Hs00361131_g1 and ACTB: Hs01060665_g1) and TaqMan Fast Advanced Master Mix (Life Technologies) in 5 μL multiplexed reactions and 384-well format using the LightCycler 480 Instrument II (Roche). For each sample, six technical replicates were performed. Data were analyzed using the LightCycler 480 software (Roche) by the ΔΔCt method: Ct values for the gene of interest (HBG1) were normalized to Ct values for the housekeeping gene (ACTB) and fold-changes in the expression level of the gene of interest were normalized to RFP-transfected control. The data are reported as mean±S.E.M. for technical replicates.
For transcription activation experiments 250,000 cells/well were plated in a 12 well plate. […] Data were analyzed using the LightCycler 480 software (Roche) by the ΔΔCt method: Ct values for the gene of interest (HBG1) were normalized to Ct values for the housekeeping gene (ACTB) and fold-changes in the expression level of the gene of interest were normalized to RFP-transfected control. […]

U2OS.eGFP.PEST cells = assay: Cell viability assay (ATP content), U2OS.eGFP.PEST cells; type: cell-based, human; conditions: up to 20 μM, 24 h
Protocol: FIG. 22—Cell viability assay (ATP content) of U2OS.eGFP.PEST cells in the presence of compounds. Measurement ATP content of U2OS.eGFP.PEST cells upon incubating with BRD7087 and BRD5779 (5-20 μM) for 24 h. Error bars represent ±S.D. from technical replicates (n=3).
FIG. 66. Cell viability assay (ATP content) of U2OS.eGFP.PEST cells in the presence of compounds. Measurement of ATP content of U2OS.eGFP.PEST cells upon incubating with BRD7087 and BRD5779 (5-20 μM) for 24 h. Error bars represent ±S.D. from technical replicates (n=3).

Compound | inhibition of HBG1 transcriptional activation (dCas9) | cytotoxicity: cellular ATP-levels (U2OS.eGFP.PEST cells) | inhibition of transcriptional activation (dCas9; 10 μM, HBG1 gene)
COc1ccc(-c2ccc3c(c2)[C@H]2[C@H](CCN2Cc2ccncc2)[C@@H](CO)N3)cc1 [BRD5779, ((3aR,4S,9bR)-8-(4-Methoxyphenyl)-1-(pyridin-4-ylmethyl)-2,3,3a,4,5,9b-hexahydro-1H-pyrrolo[3,2-c]quinolin-4-yl)methanol] | dose-dependent inhibition | did not significantly alter the cellular ATP-levels | –
OC[C@H]1Nc2ccc(-c3cccc(F)c3)cc2[C@H]2[C@@H]1CCN2Cc1ccncc1 [BRD7087, ((3aR,4S,9bR)-8-(3-Fluorophenyl)-1-(pyridin-4-ylmethyl)-2,3,3a,4,5,9b-hexahydro-1H-pyrrolo[3,2-c]quinolin-4-yl)methanol] | dose-dependent inhibition | did not significantly alter the cellular ATP-levels | > 60%
